Here are results for 4 compounds from patent US4083993A, “Compositions containing benzoylacetonitrile and method of use to treat inflammation” (American Cyanamid Co., priority 1977, dated 1978).

The series concerns adjuvant induced arthritis. As to the kind of experiment: adjuvant induced arthritis in rats (Freund's adjuvant, injected right hind paw; chronic inflammation with joint destruction). It is filed as in vivo, royal Hart, Wistar strain rats. To be noted: oral, once daily days 0-13. The protocol: Groups of three royal Hart, Wistar strain rats weighing 200+10 grams each were injected intradermally in the right hind paw with Freund's adjuvant (dried human tubercle bacilli in a mineral oil vehicle) at a dose of 2 mg./kg. of body weight. Test compounds were administered orally in a 1.5% starch vehicle at various doses once daily on days 0 through 13 post challenge. Control rats were treated in a similar manner, but given only starch vehicle. On the 14th and 21st day post challenge the diameter of the injected paw (primary lesion) was measured by micrometer caliper. The volume of inflamed paws were estimated from these measurements and the results are expressed as percent inhibition of swelling as compared to controls. At the same time, the other inflamed sites, such as ears, paws and tail (secondary lesions) were observed and each rat was graded as to degree of inflammation and swelling present. The grading is based on a scale of 0 to 24, where 0 represents a complete absence of induced arthritic nodules and 24 represents the maximum degree of inflammation. The mean grade for each treated group is calculated and the effects of each compound are expressed as percent inhibition of the control grade. Table I records the results of these tests conducted with benzoylacetonitrile, o-fluorobenzoylacetonitrile, m-fluorobenzoylacetonitrile, p-fluorobenzoylacetonitrile, and known anti-inflammatory agents. The active compounds of the present invention suppress the progression of the arthritis and associated joint deterioration.

The mark [1] stands for this setting: 25 mg./kg. of body weight, day 14.
The mark [2] stands for this setting: 25 mg./kg. of body weight, day 21.
Setting [3] is: 50 mg./kg. of body weight, day 14.
[4] abbreviates: 50 mg./kg. of body weight, day 21.
The mark [5] stands for this setting: 100 mg./kg. of body weight, day 14.
[6] abbreviates: 100 mg./kg. of body weight, day 21.
The mark [7] stands for this setting: 200 mg./kg. of body weight, day 14.
Where [8] appears, read: 200 mg./kg. of body weight, day 21.
The mark [9] stands for this setting: 400 mg./kg. of body weight, day 14.
Setting [10] is: 400 mg./kg. of body weight, day 21.

For `N#CCC(=O)c1ccccc1` [Benzoylacetonitrile, benzoylacetonitrile], the “Dead/Treated At 21 Days” value by setting is: (25 mg./kg. of body weight) 3/36; (50 mg./kg. of body weight) 6/54; (100 mg./kg. of body weight) 5/36; (200 mg./kg. of body weight) 2/18; (400 mg./kg. of body weight) 3/18. The “% Inhibition of Control Grade (secondary lesion)” value (shortened to “% Inhibition of Control Grade”) under setting [1] came to 40%; the “% Inhibition of Control Grade” value under setting [2] amounted to 14%; the “% Inhibition of Control Grade” value under setting [3] was 52%; the “% Inhibition of Control Grade” value under setting [4] is on record as 26%; the “% Inhibition of Control Grade” value under setting [5] turned out to be 70%; the “% Inhibition of Control Grade” value under setting [6] was determined as 43%. The “% Inhibition of Control Grade” value amounted to 70% under setting [7], 43% under setting [8], 84% under setting [9] and 82% under setting [10]. Also, the “% Inhibition of Swelling (primary lesion)” value (“% Inhibition of Swelling” for short) is listed as 54% under setting [1]; 33% under setting [2]; 51% under setting [3]; 42% under setting [4]; 63% under setting [5]; 48% under setting [6]. Besides, the “% Inhibition of Swelling” value reads like this: under setting [7], 73%; under setting [8], 48%; under setting [9], 81%; under setting [10], 72%. Moreover, the “Mean Weight Gain” value reads like this: under setting [1], 54 grams; under setting [2], 56 grams; under setting [3], 53 grams; under setting [4], 59 grams; under setting [5], 49 grams; under setting [6], 65 grams. Further, the “Mean Weight Gain” value was 56 grams under setting [7], 81 grams under setting [8], 31 grams under setting [9] and 72 grams under setting [10].
For the compound `N#CCC(=O)c1cccc(F)c1` [m-Fluorobenzoylacetonitrile, m-fluorobenzoylacetonitrile], the “Dead/Treated At 21 Days” value (50 mg./kg. of body weight) is given as 0/21. Besides, the “% Inhibition of Swelling” value under setting [3] was determined as 40% and the “% Inhibition of Swelling” value under setting [4] was found to be 27%. Besides, the “Mean Weight Gain” value came out at 43 grams under setting [3] and 37 grams under setting [4].
In the case of `N#CCC(=O)c1ccccc1F` [o-Fluorobenzoylacetonitrile, o-fluorobenzoylacetonitrile], the “Dead/Treated At 21 Days” value (50 mg./kg. of body weight) is on record as 1/18. Also, under setting [3], the “% Inhibition of Swelling” value was found to be 63% and the “Mean Weight Gain” value was 71 grams. Also, under setting [4], the “% Inhibition of Swelling” value turned out to be 49% and the “Mean Weight Gain” value was determined as 72 grams.
Consider `N#CCC(=O)c1ccc(F)cc1` [p-Fluorobenzoylacetonitrile, p-fluorobenzoylacetonitrile], for which the “Dead/Treated At 21 Days” value (25 mg./kg. of body weight) is listed as 1/18; the “Dead/Treated At 21 Days” value (50 mg./kg. of body weight) is 2/36; the “Dead/Treated At 21 Days” value (100 mg./kg. of body weight) is reported as 4/18; the “Dead/Treated At 21 Days” value (200 mg./kg. of body weight) is 3/18; the “Dead/Treated At 21 Days” value (400 mg./kg. of body weight) is reported as 3/18. The “% Inhibition of Control Grade” value stood at 25% under setting [1]; 0% under setting [2]; 13% under setting [3]; 0% under setting [4]; 44% under setting [5]; 10% under setting [6]. Further, the “% Inhibition of Control Grade” value under setting [7] amounted to 63%, the “% Inhibition of Control Grade” value under setting [8] turned out to be 16%, the “% Inhibition of Control Grade” value under setting [9] was found to be 72% and the “% Inhibition of Control Grade” value under setting [10] was 45%. The “% Inhibition of Swelling” value under setting [1] is 33%; the “% Inhibition of Swelling” value under setting [2] is 17%; the “% Inhibition of Swelling” value under setting [3] is 56%; the “% Inhibition of Swelling” value under setting [4] is on record as 39%; the “% Inhibition of Swelling” value under setting [5] is 46%; the “% Inhibition of Swelling” value under setting [6] was 32%. Further, the “% Inhibition of Swelling” value runs as follows: under setting [7], 52%; under setting [8], 32%; under setting [9], 75%; under setting [10], 63%. The “Mean Weight Gain” value runs as follows: under setting [1], 55 grams; under setting [2], 48 grams; under setting [3], 61 grams; under setting [4], 58 grams; under setting [5], 63 grams; under setting [6], 71 grams. The “Mean Weight Gain” value is 67 grams under setting [7], 62 grams under setting [8], 42 grams under setting [9] and 64 grams under setting [10].
